Conditions in all cases: ASO
Data set [1] deals with SUMO1.
Data set [2] has as its target IKBKB.
Data set [3] has as its target IL15.
Data set [4] addresses RHOG.

These antisense oligonucleotides have a phosphorothioate backbone; sugars and methylation of C are not fully specified.
Note: test concentration or dose not given here.

In the case of CTGTCCAATGACTTTGAG, the remaining target (mRNA or protein) (fraction of control) in data set [1] is at least 1.

On to CTGTCCCAAGGCGCTCTT, for which the remaining target (mRNA or protein) (fraction of control) in data set [2] was determined as 0.42.

In data set [3], CTGTTTTAGGAAGCCCTG had a remaining target (mRNA or protein) (fraction of control) of 0.58.

CTTCGCTAACAACAATGT: the remaining target (mRNA or protein) (fraction of control) in data set [2] was at least 1.

Sequence CTTCTGCTTGCAAACCAC gave a remaining target (mRNA or protein) (fraction of control) in data set [2] of 0.82.

As to CTTTGGAGTTAGTCATTA, in data set [1], the remaining target (mRNA or protein) (fraction of control) was at least 1.

On to CTTTTAATAAGCACTCTA, for which, in data set [3], the remaining target (mRNA or protein) (fraction of control) was at least 1.

Regarding GACAACAGTCTTCTCATC, the remaining target (mRNA or protein) (fraction of control) in data set [2] was found to be 0.77.

The sequence GAGGAGATTCATCATGGC displayed a remaining target (mRNA or protein) (fraction of control) in data set [2] of 0.97.

In data set [1], GATAAACTTCAATCACAT yielded a remaining target (mRNA or protein) (fraction of control) of at least 1.

The sequence GCAGTAACTTCCGCTACG had a remaining target (mRNA or protein) (fraction of control) in data set [1] of at least 1.

In turn, GCCAGGACACTGTTAAGA came in with a remaining target (mRNA or protein) (fraction of control) in data set [2] of 0.43.

Sequence GCCCTGCACTGAAACAGC displayed a remaining target (mRNA or protein) (fraction of control) in data set [3] of 0.39.

GCCTCCTACAATACAATC: the remaining target (mRNA or protein) (fraction of control) in data set [3] is at least 1.

In turn, GCTCAGGTAAGCTGTTGG had a remaining target (mRNA or protein) (fraction of control) in data set [2] of 0.45.

GCTTTAGATCCCGATGGA gave a remaining target (mRNA or protein) (fraction of control) in data set [2] of 0.46.

Regarding GGAGAGGCAGCTGTTGTT, in data set [2], the remaining target (mRNA or protein) (fraction of control) amounted to 0.43.

On to GGCACTTCAGTAACTTTC, for which the remaining target (mRNA or protein) (fraction of control) in data set [1] was 0.79.

Sequence GGGAAGGTGACCAGCTCA returned a remaining target (mRNA or protein) (fraction of control) in data set [2] of 0.3.

Take GGGCTCTTGAAGGATACA: in data set [2], the remaining target (mRNA or protein) (fraction of control) worked out at 0.39.

For GGGCTTCCACTGACAGGA, the remaining target (mRNA or protein) (fraction of control) in data set [2] was found to be 0.18.

With GGGTCTCCGCACAGCAGC, the remaining target (mRNA or protein) (fraction of control) in data set [1] was at least 1.

Consider GGGTGAACATCACTTTCC, for which the remaining target (mRNA or protein) (fraction of control) in data set [3] is 0.43.

For the sequence GGGTTTACAAATCCTTCC, the remaining target (mRNA or protein) (fraction of control) in data set [1] was at least 1.

GTACATGACAGCCAGGAT: the remaining target (mRNA or protein) (fraction of control) in data set [3] was 0.35.

On to GTATTGAAGAAGAGCTGG, for which, in data set [3], the remaining target (mRNA or protein) (fraction of control) was at least 1.

As for GTCAGCCTTCTCATGATC, the remaining target (mRNA or protein) (fraction of control) in data set [2] is at least 1.

The sequence GTCAGTAGCGGAAAATGG came in with a remaining target (mRNA or protein) (fraction of control) in data set [4] of at least 1.

For the sequence GTCCCACAGGTTCAGGTT, the remaining target (mRNA or protein) (fraction of control) in data set [4] stood at 0.69.

Regarding GTCTTTGACAGTATGATT, in data set [1], the remaining target (mRNA or protein) (fraction of control) was at least 1.

With GTGCAGTTGCTGTAGTGA, in data set [4], the remaining target (mRNA or protein) (fraction of control) was determined as 0.9.

GTTAGGTGCTTTGGGCCA returned a remaining target (mRNA or protein) (fraction of control) in data set [3] of 0.13.

Sequence GTTCCATTCAAGTCTTCG registered a remaining target (mRNA or protein) (fraction of control) in data set [2] of 0.78.

As to GTTTCTTGAGATGTGTTG, in data set [1], the remaining target (mRNA or protein) (fraction of control) worked out at 0.86.

Regarding TACATTCACCCAGTTGGC, in data set [3], the remaining target (mRNA or protein) (fraction of control) is 0.24.

Sequence TACTTCTCAAATGTGGTT registered a remaining target (mRNA or protein) (fraction of control) in data set [3] of at least 1.

On to TCACATTCTTTGCATCCA, for which the remaining target (mRNA or protein) (fraction of control) in data set [3] turned out to be 0.31.

In data set [3], TCATCTTCTTGACAGAAA registered a remaining target (mRNA or protein) (fraction of control) of at least 1.

Consider TCCTGTACAGCTCCCTTG, for which, in data set [2], the remaining target (mRNA or protein) (fraction of control) worked out at 0.13.

As to TCTTCTGGACCCCTCTGG, the remaining target (mRNA or protein) (fraction of control) in data set [4] came out at 0.64.

For TGAGTCTCATAGGTGATT, the remaining target (mRNA or protein) (fraction of control) in data set [2] is at least 1.

For TGATGGCAATCTGCTCAC, the remaining target (mRNA or protein) (fraction of control) in data set [2] is at least 1.

TGCACGGGCTGCCAGTTG came in with a remaining target (mRNA or protein) (fraction of control) in data set [2] of 0.46.

As for TGGAGAAGGGAGAGAGCA, in data set [4], the remaining target (mRNA or protein) (fraction of control) came to 0.68.

In the case of TGTAAGTCCACAATGTCG, in data set [2], the remaining target (mRNA or protein) (fraction of control) was 0.61.

For TGTACGGAGGCGGTCATA, in data set [4], the remaining target (mRNA or protein) (fraction of control) came out at 0.63.

As for TGTATTAACCTCTGTTCT, the remaining target (mRNA or protein) (fraction of control) in data set [2] is at least 1.

On to TTAACTTGCCGTCTGAAA, for which, in data set [2], the remaining target (mRNA or protein) (fraction of control) turned out to be 0.8.

For the sequence TTAAGATGTCATCCAGGG, the remaining target (mRNA or protein) (fraction of control) in data set [2] is at least 1.

In data set [3], TTAGCTGCATCCCAAAAT showed a remaining target (mRNA or protein) (fraction of control) of 0.48.

In the case of TTAGTAGCATTTAGGTAA, the remaining target (mRNA or protein) (fraction of control) in data set [3] is at least 1.

The sequence TTCAAGATATGAACCAGC yielded a remaining target (mRNA or protein) (fraction of control) in data set [2] of 0.54.

In data set [3], TTCAATAATAAATTAAAA gave a remaining target (mRNA or protein) (fraction of control) of at least 1.

For TTCTCATTACTCAAAGCC, the remaining target (mRNA or protein) (fraction of control) in data set [3] amounted to 0.87.

For the sequence TTGGCCTTGAGCTGCTGA, in data set [2], the remaining target (mRNA or protein) (fraction of control) amounted to 0.31.

In turn, TTGTGTAGCAGATGAGCA came in with a remaining target (mRNA or protein) (fraction of control) in data set [4] of 0.65.

Sequence TTGTTATGTCTAAGCAGC had a remaining target (mRNA or protein) (fraction of control) in data set [3] of 0.47.

With TTTAATCTTTACAATAAT, in data set [3], the remaining target (mRNA or protein) (fraction of control) was at least 1.

Sequence TTTAGAAGTAAACACAAG showed a remaining target (mRNA or protein) (fraction of control) in data set [3] of at least 1.

With TTTCACTTCGTTCTCCCG, the remaining target (mRNA or protein) (fraction of control) in data set [2] is 0.33.

The values are drawn from the OligoGym collection.
